According to PubChem BioAssay AID1845215 (Molecular Pharmacology Branch, DTP, NCI, 2023):
Calls of active or inactive are those of the source. How the source made its calls: active means viability on the fitted dose curve at most 10% of control; inactive means the rest.

Test system: SW 1271 complex tumor spheroid viability
Assay: Anticancer human tumor SW 1271 cell line growth inhibition;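 on IC50: spheroids exposed to agents for seven days before readout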;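 on viability, T/C: spheroids exposed to agents for seven days before readout; percent of DMSO vehicle control luminescence so 100% = vehicle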
Details: for IC50: curve of first compound; for viability, T/C: stronger effect = lower value
Outline: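 Single agents and combinations were tested on spheroids built from tumor cells plus HUVEC and hMSC, at half-log dilutions starting at or near clinical Cmax, else 10 microM; final DMSO 0.25% (v/v).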

[1] = second compound 1 µM, first compound 0.00949 µM
[2] = second compound 1 µM, first compound 0.03 µM
[3] = second compound 1 µM, first compound 0.0949 µM
[4] = second compound 1 µM, first compound 0.3 µM
[5] = second compound 1 µM, first compound 0.949 µM
[6] = second compound 1 µM, first compound 3 µM
[7] = second compound 3.16 µM, first compound 0.00949 µM
[8] = second compound 3.16 µM, first compound 0.03 µM
[9] = second compound 3.16 µM, first compound 0.0949 µM
[10] = second compound 3.16 µM, first compound 0.3 µM
[11] = second compound 3.16 µM, first compound 0.949 µM
[12] = second compound 3.16 µM, first compound 3 µM
[13] = second compound 10 µM, first compound 0.00949 µM
[14] = second compound 10 µM, first compound 0.03 µM
[15] = second compound 10 µM, first compound 0.0949 µM
[16] = second compound 10 µM, first compound 0.3 µM
[17] = second compound 10 µM, first compound 0.949 µM
[18] = second compound 10 µM, first compound 3 µM
[19] = second compound 31.6 µM, first compound 0.00949 µM
[20] = second compound 31.6 µM, first compound 0.03 µM
[21] = second compound 31.6 µM, first compound 0.0949 µM
[22] = second compound 31.6 µM, first compound 0.3 µM
[23] = second compound 31.6 µM, first compound 0.949 µM
[24] = second compound 31.6 µM, first compound 3 µM
[25] = second compound 100 µM, first compound 0.00949 µM
[26] = second compound 100 µM, first compound 0.03 µM
[27] = second compound 100 µM, first compound 0.0949 µM
[28] = second compound 100 µM, first compound 0.3 µM
[29] = second compound 100 µM, first compound 0.949 µM
[30] = second compound 100 µM, first compound 3 µM

CC(C)n1c(=O)n(C)c2cnc3cc(F)c(-c4ccc(OCCCN5CCCCC5)nc4)cc3c21 + COc1cc2c(cc1O)CCNC21CSC2c3c(OC(C)=O)c(C)c4c(c3C(COC1=O)N1C(O)C3Cc5cc(C)c(OC)c(O)c5C(C21)N3C)OCO4
IC50 (second compound 30 pM): 931 nM | IC50 (second compound 94.9 pM): < 31.6 nM | IC50 (second compound 0.0003 µM): < 31.6 nM | IC50 (second compound 0.000949 µM): < 31.6 nM | IC50 (second compound 0.003 µM): < 31.6 nM | viability, T/C (second compound 30 pM, first compound 0.0316 µM): 65% | viability, T/C (second compound 30 pM, first compound 0.1 µM): 57.5% | viability, T/C (second compound 30 pM, first compound 0.316 µM): 53.4% | viability, T/C (second compound 30 pM, first compound 1 µM): 45.6% | viability, T/C (second compound 30 pM, first compound 3.16 µM): 51.8% | viability, T/C (second compound 30 pM, first compound 10 µM): 29.3% | viability, T/C (second compound 94.9 pM, first compound 0.0316 µM): 29.6% | viability, T/C (second compound 94.9 pM, first compound 0.1 µM): 28.7% | viability, T/C (second compound 94.9 pM, first compound 0.316 µM): 22.3% | viability, T/C (second compound 94.9 pM, first compound 1 µM): 24.2% | viability, T/C (second compound 94.9 pM, first compound 3.16 µM): 20.9% | viability, T/C (second compound 94.9 pM, first compound 10 µM): 15.8% | viability, T/C (second compound 0.0003 µM, first compound 0.0316 µM): 28.5% | viability, T/C (second compound 0.0003 µM, first compound 0.1 µM): 33.3% | viability, T/C (second compound 0.0003 µM, first compound 0.316 µM): 24.7% | viability, T/C (second compound 0.0003 µM, first compound 1 µM): 24.2% | viability, T/C (second compound 0.0003 µM, first compound 3.16 µM): 19.1% | viability, T/C (second compound 0.0003 µM, first compound 10 µM): 12.9% | viability, T/C (second compound 0.000949 µM, first compound 0.0316 µM): 4.24% | viability, T/C (second compound 0.000949 µM, first compound 0.1 µM): 3.92% | viability, T/C (second compound 0.000949 µM, first compound 0.316 µM): 2.81% | viability, T/C (second compound 0.000949 µM, first compound 1 µM): 1.61% | viability, T/C (second compound 0.000949 µM, first compound 3.16 µM): 1.37% | viability, T/C (second compound 0.000949 µM, first compound 10 µM): 1.05% | viability, T/C (second compound 0.003 µM, first compound 0.0316 µM): 0.12% | viability, T/C (second compound 0.003 µM, first compound 0.1 µM): 0.11% | viability, T/C (second compound 0.003 µM, first compound 0.316 µM): 0.09% | viability, T/C (second compound 0.003 µM, first compound 1 µM): 0.1% | viability, T/C (second compound 0.003 µM, first compound 3.16 µM): 0.1% | viability, T/C (second compound 0.003 µM, first compound 10 µM): 0.16%

CNCc1ccc(-c2cc(-c3nc(-c4ccc(S(=O)(=O)C(C)C)cc4)cnc3N)on2)cc1 + Cn1nnc2c(C(N)=O)ncn2c1=O
IC50 (second compound 1 µM): 213 nM | IC50 (second compound 3.16 µM): 170 nM | IC50 (second compound 10 µM): 185 nM | IC50 (second compound 31.6 µM): 174 nM | IC50 (second compound 100 µM): 52.4 nM | viability, T/C [1]: 105% | viability, T/C [2]: 102% | viability, T/C [3]: 98.8% | viability, T/C [4]: 29.5% | viability, T/C [5]: 7.14% | viability, T/C [6]: 0.1% | viability, T/C [7]: 109% | viability, T/C [8]: 106% | outcome [9]: inactive | viability, T/C [10]: 23.8% | viability, T/C [11]: 7.34% | viability, T/C [12]: 0.12% | viability, T/C [13]: 99.1% | viability, T/C [14]: 105% | viability, T/C [15]: 89.7% | viability, T/C [16]: 20.8% | viability, T/C [17]: 5.82% | viability, T/C [18]: 0.11% | viability, T/C [19]: 115% | viability, T/C [20]: 82.3% | viability, T/C [21]: 75.5% | viability, T/C [22]: 17.5% | viability, T/C [23]: 37.5% | viability, T/C [24]: 0.15% | viability, T/C [25]: 93.7% | viability, T/C [26]: 69.8% | viability, T/C [27]: 29.5% | viability, T/C [28]: 9.36% | viability, T/C [29]: 29.7% | viability, T/C [30]: 0.18%

Cn1ncnc1[C@H]1c2n[nH]c(=O)c3cc(F)cc(c23)N[C@@H]1c1ccc(F)cc1 + Cn1nnc2c(C(N)=O)ncn2c1=O
IC50 (second compound 1 µM): 9.72 nM | IC50 (second compound 3.16 µM): < 9.49 nM | IC50 (second compound 10 µM): < 9.49 nM | IC50 (second compound 31.6 µM): < 9.49 nM | IC50 (second compound 100 µM): < 9.49 nM | viability, T/C [1]: 50.5% | viability, T/C [2]: 28.1% | viability, T/C [3]: 23.4% | viability, T/C [4]: 26.2% | viability, T/C [5]: 25.8% | viability, T/C [6]: 20.7% | viability, T/C [7]: 41.6% | viability, T/C [8]: 25.2% | viability, T/C [9]: 29.2% | viability, T/C [10]: 22.1% | viability, T/C [11]: 28.2% | viability, T/C [12]: 22% | viability, T/C [13]: 32.9% | viability, T/C [14]: 25.5% | viability, T/C [15]: 25.6% | viability, T/C [16]: 28.6% | viability, T/C [17]: 29.5% | viability, T/C [18]: 20.1% | viability, T/C [19]: 27.1% | viability, T/C [20]: 27.1% | viability, T/C [21]: 29.3% | viability, T/C [22]: 28.5% | viability, T/C [23]: 30.5% | viability, T/C [24]: 22% | viability, T/C [25]: 29.8% | viability, T/C [26]: 29.9% | viability, T/C [27]: 32.1% | viability, T/C [28]: 32.8% | viability, T/C [29]: 28.7% | viability, T/C [30]: 19.9%

O=C(c1cc(Cc2n[nH]c(=O)c3ccccc23)ccc1F)N1CCN(C(=O)C2CC2)CC1 + Cn1nnc2c(C(N)=O)ncn2c1=O
IC50 (second compound 1 µM): 2200 nM | IC50 (second compound 3.16 µM): 2110 nM | IC50 (second compound 10 µM): 1640 nM | IC50 (second compound 31.6 µM): 443 nM | IC50 (second compound 100 µM): < 94.9 nM | viability, T/C [3]: 95.3% | viability, T/C [4]: 78.7% | viability, T/C [5]: 69.1% | viability, T/C [6]: 45.7% | viability, T/C (second compound 1 µM, first compound 9.49 µM): 24.4% | viability, T/C (second compound 1 µM, first compound 30 µM): 32.5% | viability, T/C [9]: 86.3% | viability, T/C [10]: 82.2% | viability, T/C [11]: 70.7% | viability, T/C [12]: 41% | viability, T/C (second compound 3.16 µM, first compound 9.49 µM): 33% | viability, T/C (second compound 3.16 µM, first compound 30 µM): 34.4% | viability, T/C [15]: 95.6% | viability, T/C [16]: 86.2% | viability, T/C [17]: 63.2% | viability, T/C [18]: 34.5% | viability, T/C (second compound 10 µM, first compound 9.49 µM): 34.4% | viability, T/C (second compound 10 µM, first compound 30 µM): 27% | viability, T/C [21]: 82.5% | viability, T/C [22]: 58.1% | viability, T/C [23]: 33.9% | viability, T/C [24]: 33.1% | viability, T/C (second compound 31.6 µM, first compound 9.49 µM): 33.5% | viability, T/C (second compound 31.6 µM, first compound 30 µM): 27.6% | viability, T/C [27]: 35.1% | viability, T/C [28]: 26.4% | viability, T/C [29]: 29% | viability, T/C [30]: 32.2% | viability, T/C (second compound 100 µM, first compound 9.49 µM): 28.8% | viability, T/C (second compound 100 µM, first compound 30 µM): 28.2%
